Results from patent US20250034173A1, “PYRIDO[4,3-D]PYRIMIDINE COMPOUNDS” (PFIZER INC., priority 2023, published 2025).

Key:
[1] = target: KRAS G12D (Homo sapiens (Human), UniProt P01116, G12D); experiment: SPR binding affinity and kinetics, GTPγS-loaded KRAS G12D; details: GTPγS loaded protein, geomean
Text: (§1) No additional regeneration was used.
(§2) Compound dissociation was monitored for at least 3600 seconds. […] No additional regeneration was used.
(§3) The adequateness of the fit was judged by c2 values and the randomness of residue distribution.

[2] = target: KRAS Wild Type (Homo sapiens (Human), UniProt P01116); experiment: SPR binding affinity and kinetics, GTPγS-loaded KRAS Wild Type; details: GTPγS loaded protein, geomean
Chain of KRAS Wild Type (P01116 other isoform, or with tags, fused parts or gaps): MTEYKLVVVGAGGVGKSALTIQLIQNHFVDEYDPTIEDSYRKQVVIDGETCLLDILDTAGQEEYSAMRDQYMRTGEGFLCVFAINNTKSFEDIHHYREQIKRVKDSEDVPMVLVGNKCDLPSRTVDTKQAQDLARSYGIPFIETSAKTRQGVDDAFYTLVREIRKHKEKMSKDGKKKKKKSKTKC
Text: as §1, §2, §3

[3] = target: KRAS G12C (Homo sapiens (Human), UniProt P01116, G12C); experiment: SPR binding affinity and kinetics, GTPγS-loaded KRAS G12C; details: GTPγS loaded protein, geomean
Chain of KRAS G12C (P01116 other isoform, or with tags, fused parts or gaps G12C): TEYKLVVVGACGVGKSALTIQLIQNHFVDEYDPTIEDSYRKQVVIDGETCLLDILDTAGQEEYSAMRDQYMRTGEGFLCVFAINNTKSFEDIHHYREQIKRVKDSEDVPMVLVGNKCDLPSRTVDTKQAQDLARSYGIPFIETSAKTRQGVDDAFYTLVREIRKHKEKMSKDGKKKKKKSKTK
Text: as §1, §2, §3

[4] = tested on: PANC08.13 (pancreatic cancer cell line); experiment: KRAS Cell Titer Glo (CTG) cell proliferation assay, PANC08.13; assay type: cell-based; details: Homo sapiens, PANC-08-13, 168 h; PANC08.13 cells, 7-day CTG, geomean IC50
Text: (§4) The CellTiter-Glo® (CTG) Luminescent Cell Viability Assay is a homogeneous method of determining the number of viable cells in culture based on quantitation of the ATP present, an indicator of metabolically active cells. The CTG is designed for use with multi-well formats, making it ideal for automated high-throughput screening (HTS), cell proliferation and cytotoxicity assays. The homogeneous assay procedure involves adding the single reagent (CellTiter-Glo® Reagent) directly to cells cultured in serum-supplemented medium. Cell washing, removal of medium and multiple pipetting steps are not required. The system detects as few as 15 cells per well in a 384-well format in 10 minutes after adding reagent and mixing.
(§5) Cells are grown in humidified 5% CO2 incubator at 37° C. using the culture conditions outlined below. All cell culture media reagents were purchased from Gibco. Cell lines purchased from ATCC: H358 (non-small cell lung cancer cell line), SW620 (colorectal cancer cell line), PANC08.13 (RPM11640+10% FBS+10 units/mL Insulin, pancreatic cancer cell line). Test and control compounds are dispensed as nanoliter drops according to desired final concentrations in 0.1% DMSO using Echo Acoustic Dispenser onto 384 assay plates (Corning, Cat #3764) prior to cell seeding. Cells were seeded in 40 μL volume per well at the following cell densities (cells per well): H358 (300), SW620 (750), PANC 08.13 (600). Cells are incubated in the presence of compound for 7-days. Viability is determined on Day 7 using CellTiter-Glo® (CTG) Luminescent Cell Viability Assay (Promega). CTG is added to a […] per well and incubated at room temperature for 15 minutes before luminescence is captured using an EnVision Reader with LUM384 US protocol. Data is analyzed using Activity Base to determine compound response and will be represented either as a percent effect (PCTEFF) or percent control (PCTOCTL) as described: Zero percent effect control (ZPE) (Negative control)—100% DMSO. Hundred percent effect (HPE) (Positive control)—1 uM Trametinib (GSK1120212, MEK inhibitor) (4 nl of 10 mM and 36 nl of DMSO per well). The following equations/nomenclature are used (% Effect; PCTEFF) and (% of Control; PCTOCTL): PCTEFF: 100*(Raw_Data_Value−HPE/ZPE−HPE), PCTOCTL: 100*Raw_Data_Value/User_Defined_Array), where the User_Defined_Array is either summarized HPE or ZPE.
(§6) Cells with “nd” indicate compound not tested in that particular assay at time of writing. It is to be understood that the geomean IC50 data may change slightly over time with increasing repeat data (ie: increasing n #).

[5] = tested on: H358 (non-small cell lung cancer cell line); experiment: KRAS Cell Titer Glo (CTG) cell proliferation assay, H358; assay type: cell-based; details: Homo sapiens, NCI-H358, 168 h; H358 cells, 7-day CTG, geomean IC50
Text: as §4, §5, §6

[6] = tested on: SW620 (colorectal cancer cell line); experiment: KRAS Cell Titer Glo (CTG) cell proliferation assay, SW620; assay type: cell-based; details: Homo sapiens, SW-620, 168 h; SW620 cells, 7-day CTG, geomean IC50
Text: as §4, §5, §6

[7] = target: KRAS G12V (Homo sapiens (Human), UniProt P01116, G12V); experiment: SPR binding affinity and kinetics, GTPγS-loaded KRAS G12V; details: GTPγS loaded protein, geomean
Chain of KRAS G12V (P01116 other isoform, or with tags, fused parts or gaps G12V): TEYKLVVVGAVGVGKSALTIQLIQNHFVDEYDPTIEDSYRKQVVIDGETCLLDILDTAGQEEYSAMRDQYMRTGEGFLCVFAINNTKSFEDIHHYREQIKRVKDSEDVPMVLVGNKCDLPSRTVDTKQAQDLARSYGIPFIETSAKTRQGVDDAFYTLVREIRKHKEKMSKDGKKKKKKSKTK
Text: as §1, §2, §3

Chain of KRAS G12D (P01116 other isoform, or with tags, fused parts or gaps G12D): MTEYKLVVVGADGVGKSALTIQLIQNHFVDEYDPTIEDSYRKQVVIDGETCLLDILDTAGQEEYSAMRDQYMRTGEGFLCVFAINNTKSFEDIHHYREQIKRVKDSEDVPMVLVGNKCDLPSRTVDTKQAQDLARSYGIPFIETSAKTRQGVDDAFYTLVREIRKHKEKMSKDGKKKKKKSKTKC

| SMILES | Kd [1] | Kd [2] | Kd [3] | IC50 [4] | IC50 [5] | IC50 [6] | Kd [7] |
| --- | --- | --- | --- | --- | --- | --- | --- |
| C=C1CN2CC(F)C[C@@]2(COc2nc3c4c(nc(-c5c(C6CC6)c(Cl)cc6[nH]ncc56)c(F)c4n2)OC[C@@H]2COCCCN32)C1 (stereo partly drawn) [Example 14, (8aS)-5-(6-chloro-5-cyclopropyl-1H-indazol-4-yl)-4-fluoro-2-{[(2R,7aR)-2-fluoro-6-methylidenetetrahydro-1H-pyrrolizin-7a(5H)-yl]methoxy}-8a,9,12,13-tetrahydro-8H,11H-7,10-dioxa-1,3,6,13a-tetraazanaphtho[1,8-ab]heptalene] | 0.005 µM | 0.008 µM | 0.009 µM | 0.013 µM | 0.08 µM | 0.03 µM | 0.007 µM |
| F/C=C1/CN2CCC[C@@]2(COc2nc3c4c(nc(-c5c(C6CC6)c(Cl)cc6[nH]ncc56)c(F)c4n2)OC[C@@H]2COCCCN32)C1 [Example 15, (8aS)-5-(6-chloro-5-cyclopropyl-1H-indazol-4-yl)-4-fluoro-2-{[(2E,7aS)-2-(fluoromethylidene)tetrahydro-1H-pyrrolizin-7a(5H)-yl]methoxy}-8a,9,12,13-tetrahydro-8H,11H-7,10-dioxa-1,3,6,13a-tetraazanaphtho[1,8-ab]heptalene] | 0.002 µM | 0.004 µM | 0.005 µM | 0.003 µM | 0.03 µM | 0.031 µM | 0.004 µM |
| C=C1CN2C[C@@H](O)C[C@@]2(COc2nc3c4c(nc(-c5c(C6CC6)c(Cl)cc6[nH]ncc56)c(F)c4n2)OC[C@@H]2COCCCN32)C1 [Example 17, (2S,7aR)-7a-({[(8aS)-5-(6-chloro-5-cyclopropyl-1H-indazol-4-yl)-4-fluoro-8a,9,12,13-tetrahydro-8H,11H-7,10-dioxa-1,3,6,13a-tetraazanaphtho[1,8-ab]heptalen-2-yl]oxy}methyl)-6-methylidenehexahydro-1H-pyrrolizin-2-ol] | 0.003 µM | 0.005 µM | 0.005 µM | 0.031 µM | 0.08 µM | 0.19 µM | 0.004 µM |
| Fc1c(-c2c(C3CC3)c(Cl)cc3[nH]ncc23)nc2c3c(nc(OC[C@@]45CCCN4CC4(CC4)C5)nc13)N1CCCOC[C@H]1CO2 [Example 18, (8aS)-2-{[(7′aS)-dihydro-1′H,3′H-spiro[cyclopropane-1,2′-pyrrolizin]-7′a(5′H)-yl]methoxy}-5-(6-chloro-5-cyclopropyl-1H-indazol-4-yl)-4-fluoro-8a,9,12,13-tetrahydro-8H,11H-7,10-dioxa-1,3,6,13a-tetraazanaphtho[1,8-ab]heptalene] | 0.034 µM | 0.061 µM | 0.064 µM | 0.068 µM | 0.304 µM | 0.479 µM | 0.061 µM |
| C=C1CN2C[C@H](O)C[C@@]2(COc2nc3c4c(nc(-c5c(C6CC6)c(Cl)cc6[nH]ncc56)c(F)c4n2)OC[C@@H]2COCCCN32)C1 [Example 25, (2R,7aR)-7a-({[(8aS)-5-(6-chloro-5-cyclopropyl-1H-indazol-4-yl)-4-fluoro-8a,9,12,13-tetrahydro-8H,11H-7,10-dioxa-1,3,6,13a-tetraazanaphtho[1,8-ab]heptalen-2-yl]oxy}methyl)-6-methylidenehexahydro-1H-pyrrolizin-2-ol] | 0.003 µM | 0.004 µM | 0.002 µM | 0.013 µM | 0.041 µM | 0.022 µM | 0.002 µM |
| C/C=C1/CN2CCC[C@@]2(COc2nc3c4c(nc(-c5c(C6CC6)c(Cl)cc6[nH]ncc56)c(F)c4n2)OC[C@@H]2COCCCN32)C1 [Example 27, (8aS)-5-(6-chloro-5-cyclopropyl-1H-indazol-4-yl)-2-{[(2E,7aS)-2-ethylidenetetrahydro-1H-pyrrolizin-7a(5H)-yl]methoxy}-4-fluoro-8a,9,12,13-tetrahydro-8H,11H-7,10-dioxa-1,3,6,13a-tetraazanaphtho[1,8-ab]heptalene] | 0.004 µM | 0.009 µM | 0.003 µM | 0.009 µM | 0.072 µM | 0.074 µM | 0.006 µM |

Further lines, results first:

| Kd [1] | Kd [2] | Kd [3] | IC50 [4] | IC50 [5] | IC50 [6] | Kd [7] | SMILES |
| --- | --- | --- | --- | --- | --- | --- | --- |
| 0.019 µM | 0.046 µM | 0.039 µM | 0.161 µM | 0.768 µM | 1.42 µM | 0.036 µM | C=C1CN2CCC[C@@]2(COc2nc3c4c(nc(-c5c6c(cc7[nH]ncc57)CCC[C@@H]6C)c(F)c4n2)OC[C@@H]2COCCCN32)C1 [Example 32, (8aS)-4-fluoro-2-{[(7aS)-2-methylidenetetrahydro-1H-pyrrolizin-7a(5H)-yl]methoxy}-5-[(5S)-5-methyl-5,6,7,8-tetrahydro-1H-benzo[f]indazol-4-yl]-8a,9,12,13-tetrahydro-8H,11H-7,10-dioxa-1,3,6,13a-tetraazanaphtho[1,8-ab]heptalene] |
| 0.006 µM | 0.008 µM | 0.006 µM | 0.018 µM | 0.058 µM | 0.103 µM | 0.006 µM | C=C1CN2CCC[C@@]2(COc2nc3c4c(nc(-c5c(CC)c(Cl)cc6[nH]ncc56)c(F)c4n2)OC[C@@H]2COCCCN32)C1 [Example 33, (8aS)-5-(6-chloro-5-ethyl-1H-indazol-4-yl)-4-fluoro-2-{[(7aS)-2-methylidenetetrahydro-1H-pyrrolizin-7a(5H)-yl]methoxy}-8a,9,12,13-tetrahydro-8H,11H-7,10-dioxa-1,3,6,13a-tetraazanaphtho[1,8-ab]heptalene] |
| > 10 µM | > 10 µM | > 10 µM | 9.35 µM | > 9.99 µM | > 9.99 µM | > 10 µM | C=C1CN2CCC[C@@]2(COc2nc3c4c(nc(-c5cccc6[nH]ncc56)c(F)c4n2)OC[C@@H]2COCCCN32)C1 [Example 34, (8aS)-4-fluoro-5-(1H-indazol-4-yl)-2-{[(7aS)-2-methylidenetetrahydro-1H-pyrrolizin-7a(5H)-yl]methoxy}-8a,9,12,13-tetrahydro-8H,11H-7,10-dioxa-1,3,6,13a-tetraazanaphtho[1,8-ab]heptalene] |
| 0.008 µM | 0.011 µM | 0.012 µM | 0.01 µM | 0.126 µM | 0.049 µM | 0.012 µM | Fc1c(-c2c(C3CC3)c(Cl)cc3[nH]ncc23)nc2c3c(nc(OC[C@@]45C[C@@H](F)CN4CC4(CC4)C5)nc13)N1CCCOC[C@H]1CO2 [Example 35, (8aS)-2-{[(6′R,7′aR)-6′-fluorodihydro-1′H,3′H-spiro[cyclopropane-1,2′-pyrrolizin]-7′a(5′H)-yl]methoxy}-5-(6-chloro-5-cyclopropyl-1H-indazol-4-yl)-4-fluoro-8a,9,12,13-tetrahydro-8H,11H-7,10-dioxa-1,3,6,13a-tetraazanaphtho[1,8-ab]heptalene] |
| 0.002 µM | 0.004 µM | 0.003 µM | 0.002 µM | 0.008 µM | 0.018 µM | 0.004 µM | C=C1CN2CCC[C@@]2(COc2nc3c4c(nc(-c5c(C6CC6)c(Cl)cc6[nH]ncc56)c(F)c4n2)OC[C@@H]2COCC[C@H](C)N32)C1 [Example 38, (8aS,13S)-5-(6-chloro-5-cyclopropyl-1H-indazol-4-yl)-4-fluoro-13-methyl-2-{[(7aS)-2-methylidenetetrahydro-1H-pyrrolizin-7a(5H)-yl]methoxy}-8a,9,12,13-tetrahydro-8H,11H-7,10-dioxa-1,3,6,13a-tetraazanaphtho[1,8-ab]heptalene] |
